Literature values, collected in US20120208745A1, “TREATMENT OF HIV” (priority 2006, published 2012).
Like-named read-outs stand apart in the source and are kept apart here.

Assays:
IL-1 = settings: whole blood of HIV patients stimulated with LPS; concentration-dependent
TNF-α [1] = settings: whole blood of HIV patients stimulated with LPS; concentration-dependent
IL-1β = settings: normal PBMC, induced by HIV envelope glycoprotein gp 120
TNF-α [2] = settings: normal PBMC, induced by HIV envelope glycoprotein gp 120

Row | Substance | production of IL-1 (IL-1) | production of TNF-α (TNF-α [1]) | production of IL-1β (IL-1β) | production of TNF-α (TNF-α [2])
1 | ACTH (1-24): Melanocortin peptide, fragment 1-24 of adrenocorticotropic hormone (SYSMEHFRWGKPVGKKRRPVKVYP; Corticotropin; UniProt P01189 138-161, looked up, fragment) | reduced | reduced | – | –
2 | adrenocorticotropic hormone [ACTH (1-39)] (SYSMEHFRWGKPVGKKRRPVKVYPNGAEDESAEAFPLEF; Corticotropin; UniProt P01189 138-176, looked up) [Proopiomelanocortin-derived melanocortin peptide] | reduced | reduced | – | –
3 | α-melanocyte-stimulating hormone [α-MSH (1-13), α-melanocyte-stimulating hormone [α-MSH (1-13)]] | reduced | reduced | inhibit | inhibit
